Patent US20200323213A1, “Methods of use for compositions comprising biguanide compound and diol surfactant” (3M INNOVATIVE PROPERTIES COMPANY, priority 2014, published 2020)

Columns and labels:
[1] = tested on: Staphylococcus aureus strain 15981; assay: Antimicrobial efficacy test: survival of planktonic S. aureus after short exposure; format: cell-based; details: 0.1wt-% of CHG, alone or in combination with DYNOL (text summary, matches Table 4)
Excerpt: The composition described herein can reduce and eliminate Staphylococcus aureus and Pseudomonas aeruginosa. Those of ordinary skill in the art will readily determine when a composition provides antimicrobial activity using assay and bacterial screening methods well known in the art. For example, the compositions can be evaluated utilizing Antimicrobial Efficacy Test described in the Examples Section. Briefly, a bacterial suspension is introduced into a liquid composition. After a sufficient contact time, the sample containing the exposed bacteria is collected, placed in neutralizing broth, a sample is taken and diluted, and plated on growth medium. The plated sample is incubated at an appropriate temperature and humidity for twenty four to forty-eight hours and the number of viable bacterial colonies growing on the plate is counted. Once colonies have been counted the reduction in the number of bacteria caused by the test composition is readily determined. Bacterial reduction is generally reported as log10 reduction determined by the difference between the log10 of the initial inoculum count (i.e. the control) and the log10 of the inoculum count after exposure. […]

[2] = cited from earlier work

| SMILES | log10 reduction [1] | solubility in aqueous fluid [2] [g/100 ml] |
| --- | --- | --- |
| N=C(NCCCCCCNC(=N)NC(=N)Nc1ccc(Cl)cc1)NC(=N)Nc1ccc(Cl)cc1.O=C(O)[C@H](O)[C@@H](O)[C@H](O)[C@H](O)CO.O=C(O)[C@H](O)[C@@H](O)[C@H](O)[C@H](O)CO [CHG, chlorhexidine digluconate] | 0.32 |  |
| CC(=O)O.CC(=O)O.NC(=N\CCCCCC/N=C(N)/N=C(\N)Nc1ccc(Cl)cc1)/N=C(\N)Nc1ccc(Cl)cc1 [diacetate] |  | 1.9 |
